These results are taken from patent US6461997B1, “Triazole sulfones having herbicidal activity” (Monsanto Technology LLC, priority 1999, dated 2002).

The subject of assay [1] is BRAPP (broadleaf signalgrass). As to the kind of experiment: Pre-emergence herbicidal activity, warm season. Type of assay: in vivo, Brachiaria platyphylla. Particulars: GR80 = lowest tested rate (300, 100, 30, 10 g/ha) with 80% or greater inhibition; approx. 14 days after treating; 30/21° C. The method in brief: (§1)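 GR80 values derive from percent inhibition relative to untreated plants, read roughly 14 days after sowing and pre-emergence soil-surface treatment (compound in 50:50 acetone/water; rates typically 10, 30, 100, 300 g/ha). Warm-season weeds grew at 30/21° C day/night, cool-season ones at 18/13° C; an asterisk marks activity without reaching 80% at the highest rate.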

Assay [2] deals with ECHCG (barnyardgrass). Put plainly: Pre-plant incorporated (PPI) herbicidal activity, warm season. It counts as in vivo, Echinochloa crus-galli. Particulars: for PPI activity GR80, ECHCG: pre-plant incorporated, lowest tested rate with 80% or greater inhibition, about 14 days; for Percent inhibition ECHCG: PPI application. On the procedure:
(§2) In another set of tests, the pre-plant incorporated (PPI) activity of compounds of this invention was evaluated on the same species as for the pre-emergence tests described above. In the PPI tests the following procedure, designed to simulate PPI application, was used.
(§3) A pre-prepared topsoil mixture (described above) was placed in a pot and compacted to a depth of 1.0 to 1.25 cm from the top of the pot. Seeds of each of several monocotyledonous and dicotyledonous annual plant species were placed on top of the soil. A sufficient quantity of soil to cover the seeds and level fill the pot was weighed into an open container. A known amount of the test compound was dissolved or suspended in an organic solvent and applied by spraying to this cover soil. The cover soil was thoroughly mixed to distribute the test compound throughout the cover soil, and was then applied as a cover layer over the seeds. Untreated soil was used as a cover layer for control pots. After treatment the plants were placed in a greenhouse where they received 0.64 cm of overhead irrigation. All subsequent watering consisted of a light overhead mist and/or subirrigation as needed for germination and growth. Tables 9 and 10 below relate to warm season plant species which were placed after pre-emergence treatment in a greenhouse with a 30/21° C. day/night temperature regime. Tables 11 and 12 below relates to cool season plant species placed after pre-emergence treatment in a greenhouse or growth chamber with an 18/13° C. day/night temperature regime. Only the compounds of Examples 1, 6, 8, 11, 13 and 15-20 were included in PPI tests.
(§4) Approximately 14 days after planting and treating, the plants were observed and herbicidal efficacy recorded as percent inhibition by comparison with untreated plants.

The subject of assay [3] is LAMPU (purple deadnettle). Put plainly: Pre-plant incorporated (PPI) herbicidal activity, cool season. The conditions noted are these: for PPI activity GR80, LAMPU: pre-plant incorporated, lowest tested rate with 80% or greater inhibition, about 14 days; for Percent inhibition LAMPU: weed, PPI application. It counts as in vivo, Lamium purpureum. On the procedure: as §2, §3, §4

In assay [4] the test system is STEME (common chickweed). As to the kind of experiment: Pre-emergence herbicidal activity, cool season. Particulars: lowest tested rate with 80% or greater inhibition; rates 300, 100, 30, 10 g/ha; about 14 days. It counts as in vivo, Stellaria media. The method in brief:
as §1

Assay [5] has as its system SASKR (russian thistle). Put plainly: Pre-plant incorporated (PPI) herbicidal activity, cool season. Particulars: for PPI activity GR80, SASKR: pre-plant incorporated, lowest tested rate with 80% or greater inhibition, about 14 days; for Percent inhibition SASKR: weed, PPI application. Type of assay: in vivo, Salsola kali. The procedure:
as §2, §3, §4

The subject of assay [6] is BRAPP (broadleaf signalgrass). As to the kind of experiment: Pre-plant incorporated (PPI) herbicidal activity, warm season. Type of assay: in vivo, Brachiaria platyphylla. The conditions noted are these: for PPI activity GR80, BRAPP: pre-plant incorporated, lowest tested rate with 80% or greater inhibition, about 14 days; for Percent inhibition BRAPP: PPI application. On the procedure: as §2, §3, §4

Assay [7] concerns AMARE (redroot pigweed). As to the kind of experiment: Pre-emergence herbicidal activity, warm season. Type of assay: in vivo, Amaranthus retroflexus. Particulars: GR80 = lowest tested rate (300, 100, 30, 10 g/ha) with 80% or greater inhibition; approx. 14 days after treating; 30/21° C. The method in brief:
as §1

In the case of `CCN(CC)C(=O)n1cnc(S(=O)(=O)C(F)(F)C(=O)c2ccccc2)n1` [Example 6], the “Pre-emergence activity (GR80) BRAPP” value in assay [1] is given as “* (activity observed, at least at highest rate, but <80% inhibition)”. Moreover, the “PPI activity GR80, ECHCG” value in assay [2] is recorded as 100 g/ha. The “PPI activity GR80, LAMPU” value in assay [3] turned out to be 300 g/ha. Besides, in assay [4], the “Pre-emergence activity GR80, STEME” value was found to be 300 g/ha. In assay [5], the “PPI activity GR80, SASKR” value is recorded as 300 g/ha. The “PPI activity GR80, BRAPP” value in assay [6] worked out at 300 g/ha.

With `CCN(CC)C(=O)n1cnc(S(=O)(=O)C(F)(F)SCC(=O)OC)n1` [Example 11], in assay [7], the “Pre-emergence activity (GR80) AMARE” value worked out at 100 g/ha. The “Percent inhibition ECHCG” value in assay [2] (10 g/ha) worked out at 0%; in assay [2] (30 g/ha), 0%; in assay [2] (100 g/ha), 40%; in assay [2] (300 g/ha) it was 70%; in assay [2] (900 g/ha), 99%. In addition, in assay [2], the “PPI activity GR80, ECHCG” value was “* (activity observed, at least at highest rate, but <80% inhibition)”. The “PPI activity GR80, LAMPU” value in assay [3] worked out at 300 g/ha. Further, the “Percent inhibition LAMPU” value in assay [3] (10 g/ha), in assay [3] (30 g/ha), in assay [3] (100 g/ha), in assay [3] (300 g/ha) and in assay [3] (900 g/ha) was 0% throughout. Besides, the “Pre-emergence activity GR80, STEME” value in assay [4] is “[empty]”. For the same compound, the “PPI activity GR80, SASKR” value in assay [5] is 100 g/ha. Also, the “Percent inhibition SASKR” value in assay [5] (10 g/ha) was found to be 0%; in assay [5] (30 g/ha), 20%; in assay [5] (300 g/ha), 30%; in assay [5] (900 g/ha) it was 65%. Further, the “Percent inhibition BRAPP” value is 0% in assay [6] (10 g/ha); 0% in assay [6] (30 g/ha); 60% in assay [6] (100 g/ha); 100% in assay [6] (300 g/ha); 100% in assay [6] (900 g/ha). In addition, the “PPI activity GR80, BRAPP” value in assay [6] is listed as 300 g/ha.

With `CCN(CC)C(=O)n1cnc(S(=O)(=O)C(F)(F)SCCOC)n1` [Example 13], the “Pre-emergence activity (GR80) BRAPP” value in assay [1] amounted to 300 g/ha. The “Percent inhibition ECHCG” value in assay [2] (10 g/ha) was found to be 10%; in assay [2] (30 g/ha), 80%; in assay [2] (100 g/ha) it was 100%; in assay [2] (300 g/ha) it was 100%; in assay [2] (900 g/ha), 100%. For the same compound, the “PPI activity GR80, ECHCG” value in assay [2] turned out to be 100 g/ha. In assay [3], the “PPI activity GR80, LAMPU” value is 30 g/ha. Also, the “Percent inhibition LAMPU” value is recorded as 0% in assay [3] (10 g/ha), 0% in assay [3] (100 g/ha), 0% in assay [3] (300 g/ha) and 90% in assay [3] (900 g/ha). Moreover, in assay [4], the “Pre-emergence activity GR80, STEME” value is reported as 100 g/ha. For the same compound, in assay [5], the “PPI activity GR80, SASKR” value stood at 300 g/ha. Also, the “Percent inhibition SASKR” value is on record as 20% in assay [5] (10 g/ha); 30% in assay [5] (30 g/ha); 80% in assay [5] (100 g/ha); 100% in assay [5] (300 g/ha); 100% in assay [5] (900 g/ha). The “Percent inhibition BRAPP” value in assay [6] (10 g/ha) is listed as 40%; in assay [6] (30 g/ha), 80%; in assay [6] (100 g/ha), 95%; in assay [6] (300 g/ha), 99%; in assay [6] (900 g/ha), 100%. For the same compound, the “PPI activity GR80, BRAPP” value in assay [6] turned out to be 100 g/ha.

Turning to `CCN(CC)C(=O)n1cnc(S(=O)(=O)C(F)(F)C(F)(F)SC)n1` [Example 14], the “Pre-emergence activity (GR80) AMARE” value in assay [7] came out at 300 g/ha. The “Pre-emergence activity (GR80) BRAPP” value in assay [1] was 300 g/ha. Further, in assay [4], the “Pre-emergence activity GR80, STEME” value was 300 g/ha.

For the compound `C=C(CC(F)(F)S(=O)(=O)c1ncn(C(=O)N(CC)CC)n1)C[Si](C)(C)C` [Example 20], in assay [1], the “Pre-emergence activity (GR80) BRAPP” value is on record as 300 g/ha. Besides, the “Percent inhibition ECHCG” value in assay [2] (10 g/ha) is on record as 0%; in assay [2] (30 g/ha) it was 0%; in assay [2] (100 g/ha), 20%; in assay [2] (300 g/ha), 70%; in assay [2] (900 g/ha) it was 100%. For the same compound, the “PPI activity GR80, ECHCG” value in assay [2] came out at 300 g/ha. Besides, the “PPI activity GR80, LAMPU” value in assay [3] amounted to 100 g/ha. For the same compound, the “Percent inhibition LAMPU” value in assay [3] (10 g/ha) was found to be 90%; in assay [3] (30 g/ha), 60%; in assay [3] (100 g/ha) it was 80%; in assay [3] (300 g/ha) it was 100%; in assay [3] (900 g/ha), 95%. Further, the “Pre-emergence activity GR80, STEME” value in assay [4] is “[empty]”. The “PPI activity GR80, SASKR” value in assay [5] turned out to be 300 g/ha. Also, the “Percent inhibition SASKR” value amounted to 0% in assay [5] (10 g/ha); 0% in assay [5] (30 g/ha); 40% in assay [5] (100 g/ha); 0% in assay [5] (300 g/ha); 100% in assay [5] (900 g/ha). The “Percent inhibition BRAPP” value in assay [6] (10 g/ha) turned out to be 0%; in assay [6] (30 g/ha), 0%; in assay [6] (100 g/ha), 0%; in assay [6] (300 g/ha), 30%; in assay [6] (900 g/ha), 60%. For the same compound, the “PPI activity GR80, BRAPP” value in assay [6] is recorded as 100 g/ha.
